The ED50 is the dose at which the effect has come halfway, by size or by number of responders.

This note sets out measurements from patent US3996360A, “Piperazine compounds” (Knoll A.G. Chemische Fabriken, priority 1974, dated 1976).

Series [1] concerns left auricle of the guinea pig. As to the kind of experiment: Functional refractory period of the left auricle, paired electrical stimulation (method of Govier). To be noted: Table 1; effective dose which lengthens the refractory period by 25 percent. The source says:
Evidence of the anti-arrhythmic effect of the new compounds is obtained in experimental animals by determination of the functional refractory period of the left auricle of the guinea pig with the aid of paired electrical stimulation employing the method of W. C. Govier, J. Pharmacol. Exp. Therap. 148, 100 - 105 (1965). In this experimental arrangement, those anti-arrhythmic agents already known for use in therapy, of differing structure and of different points of attack in the human, all distinguish themselves by lengthening the functional refractory period. The method additionally permits a determination of the effects of the substances on the contractile force of the heart muscle [cf. Reuter and Heeg, Naunyn-Schmiedeberg's Arch. Pharmak. 268, 323 - 333 (1971) and Zettler and Strubelt, Naunyn-Schmiedeberg's Arch. Pharmak. 271, 335 - 345 (1971)].
The testing of the substances in each case involves up to thirty individual experiments. For the dosage effect relationships, linear regression functions were calculated [A. Lindner, Statistische Methoden, 3rd Edition, Birkhaeuser Verlag, Basel (1969)], wherein the maximum percentage deviations from the starting value over a period of up to 60 minutes after addition of the test substance to the bath fluid were employed.
In following Table 1, column I, the optical isomers of one of the compounds of the invention and known anti-arrhythmic agents are named. Column II reports their anti-arrhythmic effect. Column III gives the inotropic effect, and column IV represents the therapeutic breadth of the compounds. The ED25 is the effective dose which lengthens the refractory period by 25 percent or reduces the contractile force by 25 percent.
The dose in each case is 10^^-5 millimoles/liter.

A short description of series [2]: Inotropic effect: contractile force of the heart muscle (left auricle). Further details: species or system guinea pig. To be noted: guinea pig, left auricle, Table 1; ratio inotropic ED25 / antiarrhythmic ED25; read-out: Therapeutic Breadth (III/II). The source says:
(§1) Evidence of the anti-arrhythmic effect of the new compounds is obtained in experimental animals by determination of the functional refractory period of the left auricle of the guinea pig with the aid of paired electrical stimulation employing the method of […]. Pharmacol. Exp. Therap. 148, 100 - 105 (1965). In this experimental arrangement, those anti-arrhythmic agents already known for use in therapy, of differing structure and of different points of attack in the human, all distinguish themselves by lengthening the functional refractory period. The method additionally permits a determination of the effects of the substances on the contractile force of the heart muscle [cf. Reuter and Heeg, Naunyn-Schmiedeberg's Arch. Pharmak. 268, 323 - 333 (1971) and Zettler and Strubelt, Naunyn-Schmiedeberg's Arch. Pharmak. 271, 335 - 345 (1971)]. The testing of the substances in each case involves up to thirty individual experiments. For the dosage effect relationships, linear regression functions were calculated [[…] Methoden, 3rd Edition, Birkhaeuser Verlag, Basel (1969)], wherein the maximum percentage deviations from the starting value over a period of up to 60 minutes after addition of the test substance to the bath fluid were employed. In following Table 1, column I, the optical isomers of one of the compounds of the invention and known anti-arrhythmic agents are named. Column II reports their anti-arrhythmic effect. Column III gives the inotropic effect, and column IV represents the therapeutic breadth of the compounds. The ED25 is the effective dose which lengthens the refractory period by 25 percent or reduces the contractile force by 25 percent.

The test system of series [3] is left auricle of the guinea pig. The description is as above. To be noted: Table 1; effective dose which reduces the contractile force by 25 percent.
Excerpt: as §1

Series [4] deals with disturbances of the heart-beat rhythm. In words: Aconitine-induced disturbances of the heart rhythm, intravenous pretreatment. In kind it is in vivo, rats. To be noted: Rattus norvegicus, iv. An excerpt:
The anti-arrhythmic effect of the new compounds can also be determined in intact test animals by experimentally-induced disturbances of the heart rhythm. If rats are continually infused intravenously with aconitine, serious disturbances of the heart-beat rhythm, such as extrasystoles, ventricular tachycardia, and ventricular flutter, which disturbances eventually lead to the death of the test animals, are evident in an electrocardiogram. […] Bianchi et al., Arzneim. Forsch. 18, 845 - 850 (1968); Haas and Busch, Arzneim. Forsch. 18, 401 - 407 (1968); Haas et al., Arzneim. Forsch. 21, 1392 - 1399 (1971); Marmo, Naunyn-Schmiedeberg's Arch. Pharmak. 269, 231 - 247 (1971); Strubelt et al., Naunym-Schmiedeberg's Arch. Pharmak. 271, 346 - 360 ( 1971)].
The ED25 and ED50 are the intravenous doses, in mg/kg, which raise the administered aconitine doses, in comparison with the aconitine control, by 25 percent or 50 percent prior to the appearance of extrasystoles, ventricular tachycardia, and ventricular flutter.

Where two headings read alike, the source gives them in different places.

`c1ccc(CN(CC2=NCCN2)c2ccccc2)cc1` [Antazoline, reference compound]: the “Antiarrhythmic Effect (Lengthening of the Refractory Period) ED25” value in series [1] came to 0.164. The selectivity ratio in series [2] came out at 0.6. For the same molecule, the “Inotropic Effect (Decrease in Contractile Force) ED25” value in series [3] turned out to be 0.094.

Take `COc1ccc(CC2(C)CN(C(c3ccccc3)c3ccccc3)CCN2C)cc1OC` (stereo not shown) [(D)-1-diphenylmethyl-3-methyl-3-(3,4-dimethoxybenzyl)-4-methyl-piperazine]: the ED25 in series [4] (read-out: Extrasystoles ED25) stood at 0.94 mg/kg; in series [4] (read-out: Ventricular Flutter ED25) it was 0.84 mg/kg; in series [4] (read-out: Ventricular Tachycardia ED25), 0.94 mg/kg. The ED50 was 1.21 mg/kg in series [4] (read-out: Extrasystoles ED50), 1.23 mg/kg in series [4] (read-out: Ventricular Flutter ED50) and 1.26 mg/kg in series [4] (read-out: Ventricular Tachycardia ED50). Also, in series [2], the selectivity ratio stood at 1.5.
